The values below come from patent US11814371B2, “Heterocyclic compound” (MEDSHINE DISCOVERY INC., priority 2020, dated 2023).

By IC50 is commonly meant the concentration that inhibits the measured activity by half.

In data set [1] the target is T1, recombinant human plasma kallikrein (Human PKal) (Homo sapiens, UniProt P03952).
T1 construct: Gly20-Ala638 derived from NS0- with a 60-His appendage at the C-terminus; His tag ('60-His' [sic]) (C); purchased R&D Systems 2497-SE; host or cells: mouse myeloma cell line NS0
Kind of data set: Inhibitory effect of test compounds on plasma kallikrein (PKal), fluorogenic substrate Z-FR-AMC. It counts as biochemical. The conditions noted are these: 10 µM Z-FR-AMC, 10 min pre-incubation. As for the experimental part:
1. PKal reaction buffer: 25 mM Tris-HCl (trometamol-HCl), pH 8.0, 100 mM NaCl, […], 0.01 % Brij35 (polyoxyethylene lauryl ether), and 1 % DMSO (final concentration).
2. Enzyme: PKal (R&D Systems Cat# 2497-SE), recombinant human plasma kallikrein expressed in a mouse myeloma cell line, Gly20-Ala638 derived from NS0- with a 60-His appendage at the C-terminus, MW=70 kDa. Activation of the enzyme: (1) rhPKal was diluted to 200 µg/mL activation buffer (100 mM Tris, 10 mM CaCl2, 150 mM NaCl, pH 7.5 (TCN)); (2) thermolysin was diluted to 20 µg/mL activation buffer; (3) rhPKal (200 µg/mL) and thermolysin (20 µg/mL) were mixed in equal volumes; (4) the mixture was incubated at 37° C. for 30 min; (5) then the reactions was stopped with 50 µM EDTA (ethylenediaminetetraacetic acid).
3. Substrate (Enzo Cat# P-139): 10 µM Z-FR-AMC (AMC: 7-amino-4-methylcoumarin).
4. Detection: EnVision (PE), Ex/Em 355/460 nm.
5. Reaction process: (1) The specified enzymes and substrates were prepared in freshly prepared activation buffer; (2) the enzyme solution was injected into the reaction hole; (3) the DMSO solution of the test compound was injected into the reaction mixture, and controlled within the nanoliter range using acoustic technology (Echo 550, LabCyte Inc. Sunnyvale, CA); (4) after 10 min of pre-incubation, the substrate solution was injected into the reaction hole to start the reaction; (5) the activity of the enzyme could be indicated by the increase of the fluorescence signal of the fluorescent labeled peptide substrate, which was monitored every 5 min and lasted for 120 min at room temperature; (6) data analysis: the slope* (fluorescence signal/time) of the straight line was measured, then the slope could be calculated by excel and the curve could be fitted by Prism software.

Data set [2] is described as follows: Pharmacokinetic test in rat eyes after intragastric administration (eye tissue and plasma, LC-MS/MS). It counts as in vivo, male SD rats. The conditions noted are these: intragastric 75 mg/kg. How it is done:
Male SD rats were used as test animals, and LC-MS/MS method was used to determine the drug concentrations in eye tissues at different times after intragastric administration of the test compound. The pharmacokinetic behavior of the compounds in the eyes of rats after intragastric administration was studied, and the pharmacokinetic characteristics were evaluated.
2.2 Test animals: Six healthy adult male rats were divided into three groups with 4 eyes in each group. Animals were purchased from Beijing Vital River Laboratory Animal Technology Co., Ltd.
2.3 Drug preparation: An appropriate amount of sample was weighed, and an appropriate amount of DMSO and labrasol were added in sequence according to the volume ratio of 10:90, then the mixture was stirred and sonicated to reach a clear state of 15 mg/mL for intragastric administration.
2.4 Administration: 6 male SD rats were divided into 3 groups, after fasting for one night, the intragastric administration group was administered with a volume of 5 mL/kg and a dose of 75 mg/kg.
Male rats were euthanized at 1, 4 and 8 hours after intragastric administration of compound 1, and eye tissues from 2 eyes of each rat were combined and the concentration of compound in the retina and choroid/sclera was measured.
The LC-MS/MS method was used to determine the content of the test compound in the eye tissues of rats after intragastric administration. The linear range of the method was from 2.00 to 6000 nmol/L; the eye tissue concentration data are presented in Table 3, in which each eye tissue concentration data was obtained from the combined left and right eyes of 2 rats.

SMILES strings stand for the structures.

T1 sequence (P03952 20-638): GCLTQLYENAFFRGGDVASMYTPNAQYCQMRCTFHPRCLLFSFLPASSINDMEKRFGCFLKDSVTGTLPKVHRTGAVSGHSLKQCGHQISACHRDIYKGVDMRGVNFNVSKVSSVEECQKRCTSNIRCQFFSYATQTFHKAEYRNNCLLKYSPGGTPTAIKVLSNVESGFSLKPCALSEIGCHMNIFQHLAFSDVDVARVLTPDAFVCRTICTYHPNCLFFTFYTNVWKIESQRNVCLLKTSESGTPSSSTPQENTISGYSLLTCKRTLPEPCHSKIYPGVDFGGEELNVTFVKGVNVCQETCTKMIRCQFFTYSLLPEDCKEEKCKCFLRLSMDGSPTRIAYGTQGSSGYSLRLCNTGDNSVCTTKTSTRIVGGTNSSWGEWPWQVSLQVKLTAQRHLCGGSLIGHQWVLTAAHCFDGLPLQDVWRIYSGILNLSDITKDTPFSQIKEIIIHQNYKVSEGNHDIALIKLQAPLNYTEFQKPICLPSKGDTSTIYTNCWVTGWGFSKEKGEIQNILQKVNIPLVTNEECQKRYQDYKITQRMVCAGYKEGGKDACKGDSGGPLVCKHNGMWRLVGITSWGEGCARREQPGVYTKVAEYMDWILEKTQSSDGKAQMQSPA

For `COc1ccc(F)c(CNC(=O)c2cn(Cc3ccc(Cn4cc(F)ccc4=O)cc3)nc2C2COC2)c1F` [Compound 1], in data set [1], the half-inhibitory concentration (IC50) was 0.139 nM. In addition, the “AUC0-8h Choroid and sclera” value in data set [2] amounted to 2803 nmol·h/kg. Moreover, the results for the “Concentration of compound in Choroid and sclera” value in data set [2] (1 hour), in data set [2] (4 hours) and in data set [2] (8 hours) were 640 nmol/kg, 450 nmol/kg and 82 nmol/kg, respectively. In addition, the “Concentration of compound in Retina” value was 90.8 nmol/kg in data set [2] (1 hour) and 147 nmol/kg in data set [2] (4 hours). The concentration at 1 h in data set [2] (male, SD, plasma, oral, 1 hour, read-out: Concentration of compound in Plasma) was determined as 3.69 µM. In data set [2] (male, SD, plasma, oral, 4 hours, read-out: Concentration of compound in Plasma), the concentration at 4 h was found to be 6.44 µM. Further, the concentration at 8 h in data set [2] (male, SD, plasma, oral, 8 hours, read-out: Concentration of compound in Plasma) amounted to 0.729 µM. Further, in data set [2] (male, SD, plasma, po, read-out: AUC0-8h Plasma), the AUC(0-t) was 22 µM·h.

Turning to `COc1ccc(F)c(CNC(=O)c2cn(Cc3ccc(Cn4cc(F)ccc4=O)c(F)c3)nc2C2COC2)c1F` [Compound 8], in data set [1], the 50% inhibitory concentration (IC50) stood at 0.465 nM.
